What was measured:
PDE2A (h) = target: T1, PDE2A (h) (Homo sapiens, UniProt O00408); test: Enzyme assay PDE2A (h); assay type: biochemical; conditions: read-out: % Inhibition of Control Values @ 10 μM
T1 construct: host or cells: Sf9 cells
Description: The enzyme assays provided below will be familiar to those skilled in the art.
Analysis and Expression of Results: The results are expressed as a percent of control specific activity ((measured specific activity/control specific activity)×100) obtained in the presence of the test compounds.

Neuropeptide Y (ns) = test: Binding Y (ns) (ag); parameters: species or system rat
Protocol: (§1) Radioligand binding assay methods utilized to measure the activity of compounds of the invention will be familiar to those skilled in the art. In each assay case, the assay components such as, for example, the cell-type, ligand, reference compound and the like, will be familiar to practitioners of such an assay.
(§2) Analysis and Expression of Results: Compounds of the invention were tested in the biochemical assays and percent inhibition of specific binding was determined. The specific ligand binding to the receptors is defined as the difference between the total binding and the nonspecific binding determined in the presence of an excess of unlabelled ligand. The results are expressed as a percent inhibition of control specific binding (100−((measured specific binding/control specific binding)×100)) obtained in the presence of test compounds.

human androgen receptor = target: T2, human androgen receptor (Homo sapiens, UniProt P10275, T878A); test: Human Androgen Receptor (AR) Binding; conditions: AR Binding Activity Ki (μM)
T2 construct: The human androgen receptor was expressed in LNCAP cells; endogenous in cells; host or cells: LNCaP cells (supernatant of homogenate)
T2 sequence (P10275 1-920 T878A): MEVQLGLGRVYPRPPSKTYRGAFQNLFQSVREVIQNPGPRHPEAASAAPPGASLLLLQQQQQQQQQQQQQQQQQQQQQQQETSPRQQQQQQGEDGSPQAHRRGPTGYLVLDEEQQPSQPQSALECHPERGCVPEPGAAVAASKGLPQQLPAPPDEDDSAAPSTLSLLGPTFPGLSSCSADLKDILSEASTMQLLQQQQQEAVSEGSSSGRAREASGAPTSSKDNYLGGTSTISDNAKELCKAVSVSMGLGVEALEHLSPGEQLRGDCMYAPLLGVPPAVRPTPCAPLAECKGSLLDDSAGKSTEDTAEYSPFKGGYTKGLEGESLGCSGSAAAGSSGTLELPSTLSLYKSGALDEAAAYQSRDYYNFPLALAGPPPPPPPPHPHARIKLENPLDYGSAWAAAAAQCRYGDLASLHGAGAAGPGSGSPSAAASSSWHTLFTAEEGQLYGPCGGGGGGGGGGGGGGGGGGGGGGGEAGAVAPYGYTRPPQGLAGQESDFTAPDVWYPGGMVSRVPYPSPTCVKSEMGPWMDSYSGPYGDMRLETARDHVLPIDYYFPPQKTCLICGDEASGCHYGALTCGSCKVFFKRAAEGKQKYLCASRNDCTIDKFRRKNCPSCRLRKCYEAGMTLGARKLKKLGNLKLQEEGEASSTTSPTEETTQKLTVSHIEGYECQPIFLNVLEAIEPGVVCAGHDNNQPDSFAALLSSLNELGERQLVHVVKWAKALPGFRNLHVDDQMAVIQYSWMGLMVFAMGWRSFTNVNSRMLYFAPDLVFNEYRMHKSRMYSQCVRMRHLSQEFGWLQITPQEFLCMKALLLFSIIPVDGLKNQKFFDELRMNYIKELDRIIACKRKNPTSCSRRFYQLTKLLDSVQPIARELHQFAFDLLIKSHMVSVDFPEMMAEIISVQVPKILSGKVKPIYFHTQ
Protocol: Tissue Preparation: The human androgen receptor was expressed in LNCAP cells which were cultured and harvested by trypsinization from T-175 flasks. The frozen pellet was thawed and resuspended by sonication, then diluted to the appropriate concentration. The homogenate was centrifuged @ 48,000 g for 10 min at 4° C. The supernatant was used. The protein was determined. The tissue was diluted to 0.325 mg/mL with assay buffer so that each tube received 65 μg of protein, or the final assay concentration was 0.260 mg/mL.
Buffers: 25 mM HEPES pH7.4; 1.0 mM EDTA; 10 mM sodium molybdate; 10% Glycerol; 0.5 mM PFSM (dissolved PMSF in EtOH first, before adding to remaining buffer).
Binding Reaction: (Liao, et al. “The Use of a Hydroxylapatite-Filter Steroid Receptor Assay Method in the Study of the Modulation of Androgen Receptor Interaction.” J. Steroid Biochem. (1984), 20:11-17 (with modifications)). […] The binding reaction was initiated with the addition of tissue, and was incubated at 0-4° C. (in refrigerator) for 18-22 h (overnight). The binding reaction was terminated by rapid filtration of the tube contents onto 0.1% PEI treated GF/B filters. The assay tubes were rinsed once with ice-cold […] HEPES, then rapidly rinsed with 6×1 mL/tube of the same wash buffer. Radioactivity trapped on the filters was assessed using liquid scintillation spectrophotometry after soaking the filers for at least 1 h in scintillation cocktail. […] Specific binding was calculated from the difference between the total and non-specific binding. IC50 values were determined by plotting specific binding as a function of test-compound concentration.

Dopamine D2S (h) = target: T3, Dopamine D2S (h) (Homo sapiens, UniProt P14416); test: Binding D2S (h) (aa); conditions: read-out: % Inhibition of Control Specific Binding @ 10 μM
T3 construct: expressed in transfected cells; host or cells: HEK-293 cells
T3 sequence (P14416 1-414 isoform P14416-2): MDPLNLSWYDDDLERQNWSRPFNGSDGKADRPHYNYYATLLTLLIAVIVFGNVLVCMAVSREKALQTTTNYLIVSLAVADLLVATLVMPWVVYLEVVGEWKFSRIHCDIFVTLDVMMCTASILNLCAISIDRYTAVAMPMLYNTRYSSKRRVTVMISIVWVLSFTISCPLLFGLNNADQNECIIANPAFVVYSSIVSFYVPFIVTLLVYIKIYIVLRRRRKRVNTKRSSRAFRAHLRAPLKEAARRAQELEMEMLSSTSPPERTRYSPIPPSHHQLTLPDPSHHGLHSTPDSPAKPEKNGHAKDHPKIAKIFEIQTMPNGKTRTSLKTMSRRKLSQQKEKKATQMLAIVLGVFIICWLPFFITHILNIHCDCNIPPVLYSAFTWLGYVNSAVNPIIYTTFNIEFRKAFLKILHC
Protocol: as §1, §2

[1] = Reference Compound Methyltrienolone
[2] = first column, Reference Compound Mibolerone
[3] = second column, Reference Compound Mibolerone

T1 sequence (O00408 whole entry): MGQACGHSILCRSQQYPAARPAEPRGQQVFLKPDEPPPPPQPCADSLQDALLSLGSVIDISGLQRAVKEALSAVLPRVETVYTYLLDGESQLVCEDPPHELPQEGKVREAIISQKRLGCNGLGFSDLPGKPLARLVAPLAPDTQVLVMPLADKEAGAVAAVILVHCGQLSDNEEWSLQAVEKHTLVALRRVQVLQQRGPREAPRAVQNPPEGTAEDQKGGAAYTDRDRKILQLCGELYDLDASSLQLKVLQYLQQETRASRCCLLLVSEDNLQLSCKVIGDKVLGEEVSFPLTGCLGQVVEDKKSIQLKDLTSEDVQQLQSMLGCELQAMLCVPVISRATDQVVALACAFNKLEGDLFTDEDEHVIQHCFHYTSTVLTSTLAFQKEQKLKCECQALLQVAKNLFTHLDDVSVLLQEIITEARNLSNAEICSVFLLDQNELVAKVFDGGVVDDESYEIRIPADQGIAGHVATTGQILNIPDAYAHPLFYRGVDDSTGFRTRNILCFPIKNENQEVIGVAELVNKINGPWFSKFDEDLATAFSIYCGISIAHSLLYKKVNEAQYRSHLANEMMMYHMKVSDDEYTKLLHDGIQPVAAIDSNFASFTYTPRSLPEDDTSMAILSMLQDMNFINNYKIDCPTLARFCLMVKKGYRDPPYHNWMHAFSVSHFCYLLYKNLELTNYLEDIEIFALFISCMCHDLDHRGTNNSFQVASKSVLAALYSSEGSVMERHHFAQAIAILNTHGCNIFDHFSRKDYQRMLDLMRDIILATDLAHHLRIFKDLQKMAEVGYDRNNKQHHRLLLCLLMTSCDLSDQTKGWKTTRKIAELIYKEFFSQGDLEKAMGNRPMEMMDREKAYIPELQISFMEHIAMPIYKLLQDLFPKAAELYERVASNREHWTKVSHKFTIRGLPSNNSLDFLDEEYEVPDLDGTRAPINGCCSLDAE

Compound	inhibition at 10 µM (PDE2A (h))	% Inhibition of Control Specific Binding @ 10 μM (Neuropeptide Y (ns))	Ki (human androgen receptor; [1])	inhibition at 10 µM (Dopamine D2S (h))	Ki (human androgen receptor; [2])	Ki (human androgen receptor; [3])
CC1(C)C(=O)N(c2ccc(C#N)c(C(F)(F)F)c2)C(=S)N1c1ccc(C(=O)O)c(F)c1 [(MI), 4-(3-(4-cyano-3-(trifluoromethyl)phenyl)-5,5-dimethyl-4-oxo-2-thioxoimidazolidin-1-yl)-2-fluorobenzoic acid]	12%	−6%	> 10 µM	-16%		
CC1(C)C(=O)N(c2ccc(C#N)c(C(F)(F)F)c2)C(=S)N1c1ccc(C(N)=O)c(F)c1 [(MII), 4-(3-(4-Cyano-3-(trifluoromethyl)phenyl)-5,5-dimethyl-4-oxo-2-thioxoimidazolidin-1-yl)-2-fluorobenzamide]	2%	−6%	0.059 µM	-8%	0.074 µM	0.051 µM
CC1(C)C(=O)N(c2ccc(C#N)c(C(F)(F)F)c2)C(=O)N1c1ccc(C(N)=O)c(F)c1 [(MIII), 4-(3-(4-cyano-3-(trifluoromethyl)phenyl)-5,5-dimethyl-2,4-dioxoimidazolidin-1-yl)-2-fluorobenzamide]	2%	−2%	0.314 µM	-22%	0.83 µM	1.5 µM
CNC(=O)c1ccc(N2C(=O)N(c3ccc(C#N)c(C(F)(F)F)c3)C(=O)C2(C)C)cc1F [(MIV), 4-(3-(4-cyano-3-(trifluoromethyl)phenyl)-5,5-dimethyl-2,4-dioxoimidazolidin-1-yl)-2-fluoro-N-methylbenzamide]	0%	−2%	0.361 µM	-17%	0.69 µM	0.97 µM
